According to patent publication US8415310B2, “Isoxazoline derivatives as antiparasitic agents” (AH USA 42 LLC, priority 2010, dated 2013):

What was measured:
[1] = test system: Ctenocephalides felis; experiment: Flea (Ctenocephalides felis) Membrane Feed Assay-Adult; type: in vivo
Procedure: Flea (Ctenocephalides felis) Membrane Feed Assay-Adult
Comparative Data: Flea Feed Assay
Comparator compounds T1 and T2 were tested in the flea feed assay, as described above, and are compared to Examples 39 and 43, respectively. The compounds T1 (WO2008/122375) and T2 (US2009/0156643) represent the closet exemplified art. The data represents the 24 hour time period. Endpoint data were recorded as an lethal dose 90% (LD^90) in μg/mL. […] Comparator compounds T1 and T2 both had LD^90 values of >30 […].

[2] = test system: Lepeophtheirus salmonis; experiment: Copepod (Lepeophtheirus salmonis) BioAssay; type: in vivo; conditions: pre-adult/adult salmon lice exposed for 24 hours in sea water
Procedure: Copepod (Lepeophtheirus salmonis) BioAssay
Two Formula (1) compounds were dissolved in sea water. Negative control was sea water and positive control was emamectin benzoate. Ten pre-adult/adult salmon lice were exposed for 24 hours. Lice were monitored for motility and endpoint data was recorded as an Effective Concentration 100% (EC^100) based on immotility.

[3] = comparative data, flea feed assay, 24 hour time period

O=C(NC1CC1)N1CC(F)(c2ccc(C3=NOC(c4cc(Cl)cc(Cl)c4)(C(F)(F)F)C3)cc2)C1 (centres unmarked) [Example 10, N-cyclopropyl-3-(4-(5-(3,5-dichlorophenyl)-5-(trifluoromethyl)-4,5-dihydroisoxazol-3-yl)phenyl)-3-fluoroazetidine-1-carboxamide]
lethal dose 90% (LD^90) ([1]; adult fleas fed on treated citrated bovine blood approximately 2 hours, knockdown and/or death at approximately 2 and 24 hours): ≤ 0.03 µg/mL

O=C(CC(F)(F)F)N1CC(F)(c2ccc(C3=NOC(c4cc(Cl)cc(Cl)c4)(C(F)(F)F)C3)cc2)C1 (centres unmarked) [Example 43, 1-(3-(4-(5-(3,5-Dichlorophenyl)-5-(trifluoromethyl)-4,5-dihydroisoxazol-3-yl)phenyl)-3-fluoroazetidin-1-yl)-3,3,3-trifluoropropan-1-one]
lethal dose 90% (LD^90) [1, 3]: ≤ 1 µg/mL

CC(C)C(=O)N1CC(F)(c2ccc(C3=NOC(c4cc(Cl)c(F)c(Cl)c4)(C(F)(F)F)C3)cc2)C1 (single isomer, unassigned) [Example 177, 5-(3,5-dichloro-4-fluorophenyl)-3-[4-(3-fluoro-1-isobutyrylazetidin-3-yl)phenyl]-5-(trifluoromethyl)-4,5-dihydroisoxazole]
Effective Concentration 100% (EC^100) based on immotility [2]: 50 ppb

CC(=O)N1CC(F)(c2ccc(C3=NOC(c4cc(Cl)cc(Cl)c4)(C(F)(F)F)C3)cc2)C1 (centres unmarked) [Example 39, 1-(3-(4-(5-(3,5-Dichlorophenyl)-5-(trifluoromethyl)-4,5-dihydroisoxazol-3-yl)phenyl)-3-fluoroazetidin-1-yl)ethanone]
lethal dose 90% (LD^90) [1, 3]: ≤ 3 µg/mL

O=C(CC(F)(F)F)N1CC(F)(c2ccc(C3=NOC(c4cc(Cl)c(F)c(Cl)c4)(C(F)(F)F)C3)cc2)C1 (racemic) [Example 19, 1-(3-(4-(5-(3,5-dichloro-4-fluorophenyl)-5-(trifluoromethyl)-4,5-dihydroisoxazol-3-yl)phenyl)-3-fluoroazetidin-1-yl)-3,3,3-trifluoropropan-1-one]
Effective Concentration 100% (EC^100) based on immotility [2]: 50 ppb
